Consider 17 molecules from ChEMBL document CHEMBL1909046, “DrugMatrix in vitro pharmacology data”.

Usually IC50 stands for the point on the concentration scale where inhibition reaches its midpoint. One may read the Ki as a dissociation constant, usually derived from enzyme kinetics or from competition with a known ligand.

The target of one assay is T1, Glucocorticoid receptor (Homo sapiens, UniProt P04150). Also: in other assays of this panel Not Active means under 50% inhibition at 10 µM.
T1 sequence (P04150 whole entry): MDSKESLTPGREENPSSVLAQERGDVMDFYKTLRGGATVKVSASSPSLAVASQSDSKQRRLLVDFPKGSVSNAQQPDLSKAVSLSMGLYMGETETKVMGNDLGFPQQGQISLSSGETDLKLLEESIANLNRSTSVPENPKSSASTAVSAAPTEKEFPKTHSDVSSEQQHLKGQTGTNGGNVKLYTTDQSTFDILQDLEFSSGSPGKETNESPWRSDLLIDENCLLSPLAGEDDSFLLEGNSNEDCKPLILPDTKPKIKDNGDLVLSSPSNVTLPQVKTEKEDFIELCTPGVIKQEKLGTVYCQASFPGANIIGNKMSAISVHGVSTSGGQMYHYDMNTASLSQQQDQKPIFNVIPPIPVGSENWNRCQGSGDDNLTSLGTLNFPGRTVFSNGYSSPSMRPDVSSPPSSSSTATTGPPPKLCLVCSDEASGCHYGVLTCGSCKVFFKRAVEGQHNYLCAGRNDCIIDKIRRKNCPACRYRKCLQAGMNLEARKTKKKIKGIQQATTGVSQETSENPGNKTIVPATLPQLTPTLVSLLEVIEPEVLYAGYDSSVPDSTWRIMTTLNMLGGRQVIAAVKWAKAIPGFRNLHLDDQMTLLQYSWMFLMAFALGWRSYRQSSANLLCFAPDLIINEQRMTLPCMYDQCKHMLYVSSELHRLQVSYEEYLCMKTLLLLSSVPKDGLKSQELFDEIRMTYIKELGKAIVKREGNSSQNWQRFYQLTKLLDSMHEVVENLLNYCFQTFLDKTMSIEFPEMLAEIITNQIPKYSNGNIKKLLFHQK
As to conditions: hela s3.

The target of assay [1] is T2, Alpha-2A adrenergic receptor (Homo sapiens, UniProt P08913). Also: in other assays of this panel Not Active means under 50% inhibition at 10 µM.
T2 sequence (P08913 whole entry): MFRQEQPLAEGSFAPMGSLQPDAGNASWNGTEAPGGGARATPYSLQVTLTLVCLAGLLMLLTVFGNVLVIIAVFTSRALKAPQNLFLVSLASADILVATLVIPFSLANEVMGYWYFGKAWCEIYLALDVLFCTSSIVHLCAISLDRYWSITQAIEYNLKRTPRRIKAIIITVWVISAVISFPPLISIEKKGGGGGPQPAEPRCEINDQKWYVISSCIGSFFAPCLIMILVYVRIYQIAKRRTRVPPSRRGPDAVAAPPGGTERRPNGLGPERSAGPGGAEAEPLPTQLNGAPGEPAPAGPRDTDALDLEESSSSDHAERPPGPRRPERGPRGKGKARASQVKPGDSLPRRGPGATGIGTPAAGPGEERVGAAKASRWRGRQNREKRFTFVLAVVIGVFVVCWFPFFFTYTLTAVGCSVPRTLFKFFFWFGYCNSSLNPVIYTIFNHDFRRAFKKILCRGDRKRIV
Format: cell membranes, Sf9, Membrane.

In assay [2] the target is Platelet-activating factor receptor (Homo sapiens, UniProt P25105). Format: tissue-based. Also: in other assays of this panel Not Active means under 50% inhibition at 10 µM.
Platelet-activating factor receptor, sequence (P25105 whole entry): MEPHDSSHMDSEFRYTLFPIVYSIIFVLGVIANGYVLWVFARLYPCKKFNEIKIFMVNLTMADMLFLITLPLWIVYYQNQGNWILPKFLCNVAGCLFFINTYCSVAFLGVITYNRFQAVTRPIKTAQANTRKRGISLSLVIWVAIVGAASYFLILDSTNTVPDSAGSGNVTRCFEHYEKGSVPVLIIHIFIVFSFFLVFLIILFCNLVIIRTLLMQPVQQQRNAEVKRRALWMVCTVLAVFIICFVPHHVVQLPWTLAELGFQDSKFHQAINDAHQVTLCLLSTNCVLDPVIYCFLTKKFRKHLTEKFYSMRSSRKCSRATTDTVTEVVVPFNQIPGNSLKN
Assay [3] can be described thus: DRUGMATRIX: GABAA, Flunitrazepam, Central radioligand binding (ligand: [3H] Flunitrazepam). Format: cell membranes, Rattus norvegicus, Wistar, Brain, Membrane. The following applies: Not Active = under 50% inhibition at 10 µM.
The target of assay [4] is T3, Alpha-1D adrenergic receptor (Homo sapiens, UniProt P25100). Also: in other assays of this panel Not Active means under 50% inhibition at 10 µM.
T3 sequence (P25100 whole entry): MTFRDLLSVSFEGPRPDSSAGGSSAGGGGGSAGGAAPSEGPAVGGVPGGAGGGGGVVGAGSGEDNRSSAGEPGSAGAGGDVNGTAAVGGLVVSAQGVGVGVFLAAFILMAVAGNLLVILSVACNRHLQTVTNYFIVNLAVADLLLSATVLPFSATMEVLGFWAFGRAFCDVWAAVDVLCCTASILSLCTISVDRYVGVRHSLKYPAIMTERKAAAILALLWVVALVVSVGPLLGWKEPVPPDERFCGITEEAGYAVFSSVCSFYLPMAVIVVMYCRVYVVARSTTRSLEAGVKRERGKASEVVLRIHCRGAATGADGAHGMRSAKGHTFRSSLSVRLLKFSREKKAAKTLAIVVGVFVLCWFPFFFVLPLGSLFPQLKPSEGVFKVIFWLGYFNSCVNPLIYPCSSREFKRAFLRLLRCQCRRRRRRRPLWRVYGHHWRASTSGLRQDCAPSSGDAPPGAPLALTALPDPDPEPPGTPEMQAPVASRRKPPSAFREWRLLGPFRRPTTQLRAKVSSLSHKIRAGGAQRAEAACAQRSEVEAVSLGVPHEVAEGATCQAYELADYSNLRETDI
Format: cell membranes, HEK293, Membrane. As to conditions: hek293.

A short description of assay [5]: DRUGMATRIX: Atrial Natriuretic Factor (ANF) radioligand binding (ligand: [125I] ANF (rat)). Format: cell membranes, Cavia porcellus, Dunkin-Hartley, Adrenal gland, Membrane. As to conditions: Not Active = under 50% inhibition at 10 µM.

In the case of `CC[C@]1(O)C[C@H]2CN(CCc3c([nH]c4ccccc34)[C@@](C(=O)OC)(c3cc4c(cc3OC)N(C=O)[C@H]3[C@@](O)(C(=O)OC)[C@H](OC(C)=O)[C@]5(CC)C=CCN6CC[C@]43[C@@H]65)C2)C1` [VINCRISTINE], the half-maximal inhibitory concentration (IC50) entry (against Glucocorticoid receptor; in assay [1] (sf9); in assay [2]; in assay [3]; in assay [4]; in assay [5]) was “Not Active” throughout. In addition, the inhibition constant Ki result in assay [3] and in assay [5] was “Not Active” each time.
For the molecule `O=c1ncn2nc(Sc3ccc(F)cc3F)ccc2c1-c1c(Cl)cccc1Cl` [NEFLAMAPIMOD], the IC50 entry at Glucocorticoid receptor is “Not Active”; in assay [1] (read-out: IC50), 34.2 µM; in assay [2], “Not Active”; in assay [3] (read-out: IC50) it was 12 µM; in assay [4] it was “Not Active”; in assay [5] it was “Not Active”. Besides, the Ki in assay [1] (read-out: Ki) was 12.8 µM; in assay [3] (read-out: Ki), 9.77 µM; in assay [5] it was “Not Active”.
For `CCCOc1ccccc1-c1nc2nn[nH]c2c(=O)[nH]1` [ZAPRINAST], the IC50 result (at Glucocorticoid receptor; in assay [1] (sf9); in assay [2]; in assay [3]; in assay [4]; in assay [5]) was “Not Active” each time. Also, the Ki entry in assay [3] and in assay [5] was “Not Active” in each case.
In the case of `C=CCC1(C(C)CCC)C(=O)NC(=O)NC1=O` (configuration not stated) [SECOBARBITAL], the half-maximal inhibitory concentration (IC50) entry (against Glucocorticoid receptor; in assay [1] (sf9); in assay [2]; in assay [3]; in assay [4]; in assay [5]) was “Not Active” throughout. Besides, the Ki entry in assay [3] and in assay [5] was “Not Active” throughout.
As for `N[C@@H]1[C@H]2CN(c3nc4c(cc3F)c(=O)c(C(=O)O)cn4-c3ccc(F)cc3F)C[C@@H]12` [TROVAFLOXACIN], the IC50 result (against Glucocorticoid receptor; in assay [1] (sf9); in assay [2]; in assay [3]; in assay [4]; in assay [5]) was “Not Active” throughout. For the same molecule, the Ki result in assay [3] and in assay [5] was “Not Active” each time.
On to `N[C@@H](Cc1ccc(N(CCCl)CCCl)cc1)C(=O)O`, for which the IC50 result (against Glucocorticoid receptor; in assay [1] (sf9); in assay [2]; in assay [3]; in assay [4]; in assay [5]) was “Not Active” in each case. In addition, the Ki entry in assay [3] and in assay [5] was “Not Active” throughout.
Turning to `Nc1nc2ccc(OC(F)(F)F)cc2s1` [RILUZOLE], the 50% inhibitory concentration (IC50) entry (at Glucocorticoid receptor; in assay [1] (sf9); in assay [2]; in assay [3]; in assay [4]; in assay [5]) was “Not Active” in each case. Also, the Ki entry in assay [3] and in assay [5] was “Not Active” in each case.
As to SODIUM NITROPRUSSIDE, the IC50 result (against Glucocorticoid receptor; in assay [1] (sf9); in assay [2]; in assay [3]; in assay [4]; in assay [5]) was “Not Active” throughout. Besides, the Ki entry (on Glucocorticoid receptor; in assay [1] (sf9); in assay [2]; in assay [3]; in assay [4]; in assay [5]) was “Not Active” in each case.
On to `Cc1cccc(N(C)C(=S)Oc2ccc3ccccc3c2)c1` [TOLNAFTATE], for which the IC50 entry (on Glucocorticoid receptor; in assay [1] (sf9); in assay [2]; in assay [3]; in assay [4]; in assay [5]) was “Not Active” each time. The Ki entry in assay [3] and in assay [5] was “Not Active” throughout.
As for `Cc1oncc1C(=O)Nc1ccc(C(F)(F)F)cc1` [LEFLUNOMIDE], the IC50 entry (on Glucocorticoid receptor; in assay [1] (sf9); in assay [2]; in assay [3]; in assay [4]; in assay [5]) was “Not Active” throughout. Besides, the Ki entry in assay [3] and in assay [5] was “Not Active” each time.
In the case of `CC[C@@H](CO)NC(=O)[C@@H]1C=C2c3cccc4[nH]cc(c34)C[C@H]2N(C)C1` [METHYLERGONOVINE], the IC50 result was “Not Active” against Glucocorticoid receptor; 1.59 µM in assay [1] (read-out: IC50); “Not Active” in assay [2]; “Not Active” in assay [3]; “Not Active” in assay [4]; “Not Active” in assay [5]. The Ki in assay [1] (read-out: Ki) was 0.596 µM; in assay [3], “Not Active”; in assay [5], “Not Active”.
Take `CCOC(=O)N1CCC(=C2c3ccc(Cl)cc3CCc3cccnc32)CC1` [LORATADINE]: the IC50 entry (against Glucocorticoid receptor; in assay [1] (sf9); in assay [2]; in assay [3]; in assay [4]; in assay [5]) was “Not Active” in each case. Further, the Ki result in assay [3] and in assay [5] was “Not Active” throughout.
For `CC(C)(C)NC(=O)[C@@H]1C[C@@H]2CCCC[C@@H]2CN1C[C@@H](O)[C@H](Cc1ccccc1)NC(=O)[C@H](CC(N)=O)NC(=O)c1ccc2ccccc2n1`, the IC50 result (against Glucocorticoid receptor; in assay [1] (sf9); in assay [2]; in assay [3]; in assay [4]; in assay [5]) was “Not Active” throughout. Moreover, the Ki entry in assay [3] and in assay [5] was “Not Active” throughout.
Turning to `Nc1nc2nc[nH]c2c(=S)[nH]1` [THIOGUANINE], the IC50 entry (on Glucocorticoid receptor; in assay [1] (sf9); in assay [2]; in assay [3]; in assay [4]; in assay [5]) was “Not Active” throughout. Moreover, the inhibition constant Ki entry in assay [3] and in assay [5] was “Not Active” in each case.
Take `COc1nc(C)nc(Cl)c1NC1=NCCN1` [MOXONIDINE]: the IC50 result (on Glucocorticoid receptor; in assay [1] (sf9); in assay [2]; in assay [3]; in assay [4]; in assay [5]) was “Not Active” throughout. For the same molecule, the Ki entry in assay [3] and in assay [5] was “Not Active” each time.
As to `C[C@@H]1CN(c2c(F)c(N)c3c(=O)c(C(=O)O)cn(C4CC4)c3c2F)C[C@H](C)N1` [SPARFLOXACIN], the IC50 result (at Glucocorticoid receptor; in assay [1] (sf9); in assay [2]; in assay [3]; in assay [4]; in assay [5]) was “Not Active” throughout. The Ki entry in assay [3] and in assay [5] was “Not Active” in each case.
`N[C@@H](Cc1ccc(O)c(O)c1)C(=O)O` [LEVODOPA]: the IC50 result (on Glucocorticoid receptor; in assay [1] (sf9); in assay [2]; in assay [3]; in assay [4]; in assay [5]) was “Not Active” in each case. Moreover, the inhibitory constant (Ki) result in assay [3] and in assay [5] was “Not Active” in each case.
